Measurements taken from ChEMBL document CHEMBL1143290, “In vitro anti-inflammatory activity of lignans isolated from Magnolia fargesii” (Bioorg Med Chem Lett, 2009).

Assays:
BV-2 = experiment: Inhibition of NO production in LPS-stimulated mouse BV2 cells assessed as nitrite accumulation after 20 hrs by Griess reagent method; type: functional, cell-based; settings: BV-2, 20 h
[1] = Inhibition of NOS

Row | IC50 (BV-2) | IC50 [1] | Compound
1 | 30 µM |  | COc1ccc([C@H]2OC[C@H]3[C@@H]2CO[C@@H]3c2ccc(OC)c(OC)c2)cc1OC [(+)-EUDESMIN]
2 | 20.5 µM |  | COc1ccc([C@H]2OC[C@H]3[C@@H]2CO[C@@H]3c2cc(OC)c(OC)c(OC)c2)cc1OC
3 |  | 19.2 µM | CNC(=N)NCCC[C@H](N)C(=O)O [TILARGININE]
4 | 28.6 µM |  | COc1cc([C@H]2OC[C@H]3[C@@H]2CO[C@@H]3c2cc(OC)c(OC)c(OC)c2)cc(OC)c1OC
